Assay results published in ChEMBL document CHEMBL4387726, “Design and synthesis of novel tellurodibenzoic acid compounds as kidney-type glutaminase (KGA) inhibitors” (Bioorg Med Chem Lett, 2019).

How the values were obtained:
HCT-116 = assay: Antiproliferative activity against human HCT116 cells assessed as reduction in cell viability after 5 days by EZMTT assay; assay type: functional, cell-based; conditions: HCT-116, 120 h
[1] = Inhibition of Escherichia coli GDH using glutamate as substrate pre treated with 1 hr followed by substrate addition and measured after 1 hr
[2] = Inhibition of human KGA assessed as reduction in glutamate formation using glutamine as substrate pretreated with 0.5 hr followed by substrate addition and measured after 4 hrs by KGA/GDH coupled assay
[3] = Inhibition of Escherichia coli TrxR pre treated with 0.5 hr followed by DTNB addition and measured after 1 hr
[4] = Stability of the compound in acidic (HCOOH) solution at 37 degC for 24 hrs by HPLC analysis; assay type: physicochemical
[5] = Stability of the compound in nucleophilic (DTT) solution at 37 degC for 24 hrs by HPLC analysis; assay type: physicochemical
[6] = Stability of the compound in oxidative (H2O2) solution at 37 degC for 24 hrs by HPLC analysis; assay type: physicochemical
[7] = Stability of the compound in nucleophilic (beta-ME) solution at 37 degC for 24 hrs by HPLC analysis; assay type: physicochemical
[8] = Stability of the compound in basic (NH3.H2O) solution at 37 degC for 24 hrs by HPLC analysis; assay type: physicochemical
[9] = Stability of the compound in nucleophilic (lysine) solution at 37 degC for 24 hrs by HPLC analysis; assay type: physicochemical

Structure (SMILES) | EC50 (HCT-116) [µM] | IC50 [1] [µM] | IC50 [2] [µM] | IC50 [3] [µM] | Stability [4] | Stability [5] | Stability [6] | Stability [7] | Stability [8] | Stability [9]
CCOC(=O)c1cc(Br)ccc1[Te]c1ccc(Br)cc1C(=O)OCC | > 50 | > 66.7 | > 66.7 | > 66.7 | – | – | – | – | – | –
O=C(O)c1cc(I)ccc1[Te]c1ccc(I)cc1C(=O)O | 25.6 | > 66.7 | 7.4 | > 66.7 | – | – | – | – | – | –
O=C(O)c1cc(O)ccc1[Te]c1ccc(O)cc1C(=O)O | 18 | > 66.7 | 6.3 | > 66.7 | – | – | – | – | – | –
O=C(Nc1ccccc1)c1cc(Br)ccc1[Te]c1ccc(Br)cc1C(=O)Nc1ccccc1 | > 50 | > 66.7 | > 66.7 | > 66.7 | – | – | – | – | – | –
COC(=O)c1cc(Br)ccc1[Te]c1ccc(Br)cc1C(=O)OC | > 50 | > 66.7 | > 66.7 | > 66.7 | – | – | – | – | – | –
CNC(=O)c1cc(Br)ccc1[Te]c1ccc(Br)cc1C(=O)NC | > 50 | > 66.7 | > 66.7 | > 66.7 | – | – | – | – | – | –
COc1ccc(C(=O)O)c([Te]c2cc(OC)ccc2C(=O)O)c1 | 7.5 | > 66.7 | 11.3 | > 66.7 | – | – | – | – | – | –
COc1ccc([Te]c2ccc(OC)cc2C(=O)O)c(C(=O)O)c1 | 10.2 | > 66.7 | 7.8 | > 66.7 | – | – | – | – | – | –
O=C(OCc1ccccc1)c1cc(Br)ccc1[Te]c1ccc(Br)cc1C(=O)OCc1ccccc1 | > 50 | > 66.7 | > 66.7 | > 66.7 | – | – | – | – | – | –
COc1cccc(C(=O)O)c1[Te]c1c(OC)cccc1C(=O)O | > 50 | > 66.7 | > 66.7 | > 66.7 | – | – | – | – | – | –
O=C(O)c1cc(Br)ccc1[Te]c1ccc(Br)cc1C(=O)O | 5 | > 66.7 | 2.4 | > 66.7 | Stable | Unstable | Stable | Unstable | Stable | Unstable
O=C(O)c1ccccc1[Te]c1ccccc1C(=O)O | 17.8 | > 66.7 | 7 | > 66.7 | – | – | – | – | – | –
CCNC(=O)c1cc(Br)ccc1[Te]c1ccc(Br)cc1C(=O)NCC | > 50 | > 66.7 | 62.8 | > 66.7 | – | – | – | – | – | –
Cc1ccc([Te]c2ccc(C)cc2C(=O)O)c(C(=O)O)c1 | 16.9 | > 66.7 | 10.2 | > 66.7 | – | – | – | – | – | –
